Measured values from patent US20100016274A1, “BETA-LACTAM CANNABINOID RECEPTOR MODULATORS” (priority 2006, published 2010).
Where two headings read alike, the source gives them in different places.

Biological target: T1, cannabinoid receptor-1 (CB1), CB1R-containing cell membrane (Homo sapiens, UniProt P21554)
T1 construct: purchased Applied Cell Sciences Inc, Rockville, Md
Test: biochemical
Type: binding
Protocol: Method A using cell membranes. A compound is dissolved in DMSO and diluted to 1 M as a stock solution. […] A CB1R-containing cell membrane (Applied Cell Sciences Inc, Rockville, Md.) is diluted with binding buffer to a protein concentration of 28 μg/ml.
The mixture is incubated for 90 min at room temperature, then filtered through Whatman glass fiber C disc filter in a vacuum manifold. The filter is washed three times each with 2.5 ml cold wash buffer (binding buffer with only 2.5 mg/ml BSA). The vacuum-dried filter is transferred to a scintillation vial, treated with 3 ml Eco-Scint, and the radioactivity is read on a Beckman LS6500 scintillation counter from which an IC50 value is calculated. The corresponding Ki values are obtained from serial dilutions according to this method, and calculated through the use of a non-linear regression program (Graphpad Inc, San Diego, Calif.).

[1] = IC50, displacement of 3H-CP55940 (1 nM) on CB1 receptors
[2] = displacement of 3H-CP55940 (1 nM) on CB1 receptors, read-out: IC50

T1 sequence (P21554 whole entry, species assumed): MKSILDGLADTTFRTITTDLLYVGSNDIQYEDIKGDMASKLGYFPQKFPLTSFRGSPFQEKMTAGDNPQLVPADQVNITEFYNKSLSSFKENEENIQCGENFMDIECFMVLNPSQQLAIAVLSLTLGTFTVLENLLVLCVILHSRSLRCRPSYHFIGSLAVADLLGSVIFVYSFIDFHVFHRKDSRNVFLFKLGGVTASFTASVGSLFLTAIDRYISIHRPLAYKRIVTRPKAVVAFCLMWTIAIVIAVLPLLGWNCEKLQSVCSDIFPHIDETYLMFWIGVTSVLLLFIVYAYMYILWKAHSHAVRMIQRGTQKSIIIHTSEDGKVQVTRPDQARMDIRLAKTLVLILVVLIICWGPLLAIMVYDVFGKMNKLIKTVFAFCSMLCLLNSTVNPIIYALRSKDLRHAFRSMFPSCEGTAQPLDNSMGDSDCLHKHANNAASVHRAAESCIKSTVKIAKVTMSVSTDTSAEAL

Compound	IC50 [1] [µM]	IC50 [2] [µM]
O=C(NCCc1ccccc1)[C@H](CCC(=O)N1CCN(C2CCCCC2)CC1)N1C(=O)[C@@H](N2C(=O)OC[C@@H]2c2ccccc2)[C@H]1/C=C/c1ccccc1 [Example 38AC]	< 10	
O=C(CC[C@@H](C(=O)N1CCN(C2CCCCC2)CC1)N1C(=O)[C@@H](N2C(=O)OC[C@@H]2c2ccccc2)[C@H]1/C=C/c1ccccc1)NCc1cc(Cl)ccc1Cl [Example 37O]	< 10	
CC(C)NC(=O)CN1CCN(C(=O)CC[C@@H](C(=O)NCc2cccc(C(F)(F)F)c2)N2C(=O)[C@@H](N3C(=O)OC[C@@H]3c3ccccc3)[C@H]2/C=C/c2ccccc2)CC1 [Example 35AK]	< 10	
O=C(CC[C@@H](C(=O)N1CCN(C2CCCCC2)CC1)N1C(=O)[C@@H](N2C(=O)OC[C@@H]2c2ccccc2)[C@H]1/C=C/c1ccccc1)NCCOc1ccccc1 [Example 37AB]	< 10	
COc1cc(CNC(=O)[C@H](CCC(=O)N2CCN(C3CCCCC3)CC2)N2C(=O)[C@@H](N3C(=O)OC[C@@H]3c3ccccc3)[C@H]2/C=C/c2ccccc2)cc(OC)c1 [Example 38AD]	< 10	
CCCN1CCN(C(=O)CC[C@@H](C(=O)NCc2cccc(C(F)(F)F)c2)N2C(=O)[C@@H](N3C(=O)OC[C@@H]3c3ccccc3)[C@H]2/C=C/c2ccccc2)CC1 [Example 35AJ]	< 10	
C[C@@H](NC(=O)[C@H](CCC(=O)N1CCN(C2CCCCC2)CC1)N1C(=O)[C@@H](N2C(=O)OC[C@@H]2c2cccc(Cl)c2)[C@H]1/C=C/c1ccccc1)c1ccccc1 [Example 73H]		~10
O=C(CC[C@@H](C(=O)N1CCN(C2CCCCC2)CC1)N1C(=O)[C@@H](N2C(=O)OC[C@@H]2c2ccccc2)[C@H]1/C=C/c1ccccc1)N1CCC(n2c(O)nc3ccccc32)CC1 [Example 37W]	< 10	
O=C(CC[C@@H](C(=O)N1CCN(C2CCCCC2)CC1)N1C(=O)[C@@H](N2C(=O)OC[C@@H]2c2ccccc2)[C@H]1/C=C/c1ccccc1)NCc1cccc(Cl)c1Cl [Example 37P]	< 10	
COc1cccc(C(C)NC(=O)C(CCC(=O)N2CCN(C3CCCCC3)CC2)N2C(=O)C(N3C(=O)OCC3c3ccccc3)C2C=Cc2ccccc2)c1 (stereo not drawn) [Example 38AF]	< 10	
O=C(NCc1cccc(C(F)(F)F)c1)[C@H](CCC(=O)N1CCN(C2CCCCC2)CC1)N1C(=O)[C@H](N2C(=O)OC[C@@H]2c2ccccc2)[C@@H]1/C=C/c1ccccc1 [Example 73C]	~10	
COc1cccc(CNC(=O)[C@H](CCC(=O)N2CCN(C3CCCCC3)CC2)N2C(=O)[C@@H](N3C(=O)OC[C@@H]3c3ccccc3)[C@H]2/C=C/c2ccccc2)c1 [Example 38L]	~10	
COc1cccc([C@@H](C)NC(=O)[C@H](CCC(=O)N2CCN(C3CCCCC3)CC2)N2C(=O)[C@@H](N3C(=O)OC[C@@H]3c3ccccc3)[C@H]2/C=C/c2ccccc2)c1 [Example 38AE]	< 10	
O=C(NC1CCCc2ccccc21)[C@H](CCC(=O)N1CCN(C2CCCCC2)CC1)N1C(=O)[C@@H](N2C(=O)OC[C@@H]2c2ccccc2)[C@H]1/C=C/c1cccs1 (stereo partly drawn) [Example 72C]	~10	
O=C(NC1CCCc2ccccc21)[C@H](CCC(=O)N1CCN(C2CCCCC2)CC1)N1C(=O)[C@@H](N2C(=O)OC[C@@H]2c2ccccc2)[C@H]1/C=C/c1cccc2ccsc12 (stereo partly drawn) [Example 72A]		~10
O=C(CC[C@@H](C(=O)N1CCN(c2ccccn2)CC1)N1C(=O)[C@@H](N2C(=O)OC[C@@H]2c2ccccc2)[C@H]1/C=C/c1ccccc1)NCc1cc(F)cc(C(F)(F)F)c1 [Example 73F]		~10
O=C(CC[C@@H](C(=O)N1CCN(C2CCCCC2)CC1)N1C(=O)[C@@H](N2C(=O)OC[C@@H]2c2ccccc2)[C@H]1/C=C/c1ccccc1)Nc1cccc(C(F)(F)F)c1 [Example 37AE]	< 10	
O=C(CC[C@@H](C(=O)N1CCN(C2CCCCC2)CC1)N1C(=O)[C@@H](N2C(=O)OC[C@@H]2c2ccccc2)[C@H]1/C=C/c1ccccc1)NCc1cccc(C(F)(F)F)c1F [Example 37T]	< 10	
O=C(N[C@@H]1CCCc2ccccc21)[C@H](CCC(=O)N1CCN(C2CCSCC2)CC1)N1C(=O)[C@@H](N2C(=O)OC[C@@H]2c2ccccc2)[C@H]1/C=C/c1ccccc1 [Example 73B]		~10
O=C(NCc1cc(F)cc(F)c1)[C@H](CCC(=O)N1CCN(C2CCCCC2)CC1)N1C(=O)[C@@H](N2C(=O)OC[C@@H]2c2ccccc2)[C@H]1/C=C/c1ccccc1 [Example 38N]	~10	
O=C(CC[C@@H](C(=O)N1CCN(CCc2cccs2)CC1)N1C(=O)[C@@H](N2C(=O)OC[C@@H]2c2ccccc2)[C@H]1/C=C/c1ccccc1)NCc1cc(F)cc(C(F)(F)F)c1 [Example 73G]		~10

Compound	IC50 [1] [µM]	IC50 [2] [µM]
CC(C)(NC(=O)[C@H](CCC(=O)N1CCN(C2CCCCC2)CC1)N1C(=O)[C@@H](N2C(=O)OC[C@@H]2c2ccccc2)[C@H]1/C=C/c1ccccc1)c1ccccc1 [Example 38AG]	< 10	
O=C(CC[C@@H](C(=O)N1CCN(c2ccccc2)CC1)N1C(=O)[C@@H](N2C(=O)OC[C@@H]2c2ccccc2)[C@H]1/C=C/c1ccccc1)NCc1cc(F)cc(C(F)(F)F)c1 [Example 73D]		~10
O=C(NCc1ccc(F)c(Cl)c1)[C@H](CCC(=O)N1CCN(C2CCCCC2)CC1)N1C(=O)[C@@H](N2C(=O)OC[C@@H]2c2ccccc2)[C@H]1/C=C/c1ccccc1 [Example 38O]	< 10	
O=C(CC[C@@H](C(=O)N1CCN(C2CCCCC2)CC1)N1C(=O)[C@@H](N2C(=O)OC[C@@H]2c2ccccc2)[C@H]1/C=C/c1ccccc1)N1CCC(Cc2ccccc2)CC1 [Example 37AD]	< 10	
O=C(NCc1cccc2ccccc12)[C@H](CCC(=O)N1CCN(C2CCCCC2)CC1)N1C(=O)[C@@H](N2C(=O)OC[C@@H]2c2ccccc2)[C@H]1/C=C/c1ccccc1 [Example 38BL]	< 10	
O=C(CC[C@@H](C(=O)N1CCc2ccccc2C1)N1C(=O)[C@@H](N2C(=O)OC[C@@H]2c2ccccc2)[C@H]1/C=C/c1ccccc1)N1CCN(C2CCCCC2)CC1 [Example 38BM]	< 10	
O=C(CC[C@@H](C(=O)N1CCN(C2CCCCC2)CC1)N1C(=O)[C@@H](N2C(=O)OC[C@@H]2c2ccccc2)[C@H]1/C=C/c1ccccc1)NC1CCc2ccccc21 (stereo partly drawn) [Example 37V]	< 10	
O=C(CC[C@@H](C(=O)N1CCN(C2CCCCC2)CC1)N1C(=O)[C@@H](N2C(=O)OC[C@@H]2c2ccccc2)[C@H]1/C=C/c1ccccc1)NCC1CCCCC1 [Example 37AA]	< 10	
O=C(CC[C@@H](C(=O)N1CCN(C2CCCCC2)CC1)N1C(=O)[C@@H](N2C(=O)OC[C@@H]2c2ccccc2)[C@H]1/C=C/c1ccccc1)NCc1ccc(Cl)c(Cl)c1 [Example 37M]	< 10	
O=C(CC[C@@H](C(=O)N1CCN(C2CCCCC2)CC1)N1C(=O)[C@@H](N2C(=O)OC[C@@H]2c2ccccc2)[C@H]1/C=C/c1ccccc1)NCc1ccc(F)c(C(F)(F)F)c1 [Example 37R]	< 10	
O=C(CC[C@@H](C(=O)N1CCN(CCC2CCCCC2)CC1)N1C(=O)[C@@H](N2C(=O)OC[C@@H]2c2ccccc2)[C@H]1/C=C/c1ccccc1)NCc1cc(F)cc(C(F)(F)F)c1 [Example 73E]	< 10	
O=C(N[C@@H]1CCCc2ccccc21)[C@H](CCC(=O)N1CCN(C2CCCCCC2)CC1)N1C(=O)[C@@H](N2C(=O)OC[C@@H]2c2ccccc2)[C@H]1/C=C/c1ccccc1 [Example 73A]	< 10	
O=C(CN1C(=O)C(c2ccccc2)C1C=Cc1ccccc1)OCc1ccccc1 (stereo not drawn) [Example 70A, Benzyl 2-[3(S*)-2-Phenyl)-4(R*)-(2-styryl)azetidin-2-on-1-yl]acetate]	< 10	
2(S)-(tert-Butoxycarbonylaminopropyl)-2-[3(S)-(4(S)-phenyloxazolidin-2-on-3-yl)-4(R)-(styr-2-yl)azetidin-2-on-1-yl]acetic acid N-(3-trifluoromethylbenzyl)amide [Example 20Q]		< 10
Cc1cccc(CNC(=O)[C@H](CCC(=O)N2CCN(C3CCCCC3)CC2)N2C(=O)[C@@H](N3C(=O)OC[C@@H]3c3ccccc3)[C@H]2/C=C/c2ccccc2)c1 [Example 38V]	< 10	
O=C(NCc1ccc(C(F)(F)F)cc1)[C@H](CCC(=O)N1CCN(C2CCCCC2)CC1)N1C(=O)[C@@H](N2C(=O)OC[C@@H]2c2ccccc2)[C@H]1/C=C/c1ccccc1 [Example 38BH]	< 10	
O=C(CC[C@@H](C(=O)N1CCN(C2CCCCC2)CC1)N1C(=O)[C@@H](N2C(=O)OC[C@@H]2c2ccccc2)[C@H]1/C=C/c1ccccc1)NCc1cc(C(F)(F)F)ccc1F [Example 37Q]	< 10	
O=C(NCc1ccccc1C(F)(F)F)[C@H](CCC(=O)N1CCN(C2CCCCC2)CC1)N1C(=O)[C@@H](N2C(=O)OC[C@@H]2c2ccccc2)[C@H]1/C=C/c1ccccc1 [Example 38K]	~10	
O=C(C[C@@H](C(=O)NCc1cccc(C(F)(F)F)c1)N1C(=O)[C@@H](N2C(=O)OC[C@@H]2c2ccccc2)[C@H]1CCc1ccccc1)NC1CCN(Cc2ccccc2)CC1 [Example 53A, 2(S)-[[(1-Benzylpiperidin-4-yl)amino]carbonylmethyl]-2-[3 (S)-(4(S)-phenyloxazolidin-2-on-3-yl)-4(R)-(2-phenyleth-1-yl)azetidin-2-on-1-yl]acetic acid N-(3-trifluoromethylbenzyl)amide]	< 10	
O=C(CC[C@@H](C(=O)N1CCN(C2CCCCC2)CC1)N1C(=O)[C@@H](N2C(=O)OC[C@@H]2c2ccccc2)[C@H]1/C=C/c1ccccc1)NCc1ccc2c(c1)OCO2 [Example 37AC]	< 10	
O=C(CC[C@@H](C(=O)N1CCN(C2CCCCC2)CC1)N1C(=O)[C@@H](N2C(=O)OC[C@@H]2c2ccccc2)[C@H]1/C=C/c1ccccc1)NCc1cc(Cl)cc(Cl)c1 [Example 37N]	< 10	
